In patent US9795607B2, “Substituted pyrrolopyrimidine compounds, compositions thereof, and methods of treatment therewith” (Signal Pharmaceutical, LLC, priority 2013, dated 2017):

system: Triple negative breast cancer cell line CAL51; assay: Cell Titer Glo proliferation assay, CAL51; type: cell-based; conditions: Homo sapiens, CAL-51; CAL51 cell proliferation (Table 1); read-out: Act. Level
Description: Cell Titer Glo Proliferation Assay.
Triple negative breast cancer cell line CAL51 was purchased from DSMZ. […] Allcell lines were maintained in growth media consisting of 90% high glucose Dulbecco's Modified Eagle Medium or RPMI1640 (Invitrogen), 10% fetal bovine serum (Hyclone), and 2 mM L-glutamine (Invitrogen). […] After overnight culture, compound stock (30 mM) was diluted serially in DMSO, further diluted in growth media, and was added to each well as a 10× concentrated solution in a volume of 11 μL, mixed, and allowed to incubate with cells. The compound vehicle (DMSO) was maintained at a final concentration of 0.2% in all wells. After 72 h, 100 μL of Cell Titer Glo solution (Promega) was added to each well of the 96-well plate. The plate was placed on a shaker for 2 minutes. After 10 minutes incubation, the luminescence signal was detected with Envision microplate reader (Perkin Elmer).

| Compound | IC50 [nM] |
| --- | --- |
| CNC(=O)c1ccc(-c2c[nH]c3nc(Nc4ccc(C(=O)NC)cc4Cl)nc(OC4CCOCC4)c23)cc1 [Example 421, 3-chloro-N-methyl-4-(5-(4-(methylcarbamoyl)phenyl)-4-(tetrahydro-2H-pyran-4-yloxy)-7H-pyrrolo[2,3-d]pyrimidin-2-ylamino)benzamide] | < 100 |
| CNC(=O)c1ccc(-c2c[nH]c3nc(Nc4ccc(C(=O)NC)cc4Cl)nc(O[C@@H]4CCOC4)c23)cc1 [Example 434, (R)-3-chloro-N-methyl-4-(5-(4-(methylcarbamoyl)phenyl)-4-(tetrahydrofuran-3-yloxy)-7H-pyrrolo[2,3-d]pyrimidin-2-ylamino)benzamide] | < 100 |
| CNC(=O)c1ccc(-c2c[nH]c3nc(Nc4ccc(C(=O)NC)cc4Cl)nc(OC4CCCC4)c23)cc1 [Example 425, 3-chloro-4-(4-(cyclopentyloxy)-5-(4-(methylcarbamoyl)phenyl)-7H-pyrrolo[2,3-d]pyrimidin-2-ylamino)-N-methylbenzamide] | < 100 |
| COc1nc(Nc2ccc3c(cnn3C)c2C)nc2[nH]cc(-c3ccncc3)c12 [Example 419, N-(1,4-dimethyl-1H-indazol-5-yl)-4-methoxy-5-(pyridin-4-yl)-7H-pyrrolo[2,3-d]pyrimidin-2-amine] | 100 to 400 |
| CNC(=O)c1ccc(Nc2nc(OC(C)C)c3c(-c4ccc5nc(C)oc5c4)c[nH]c3n2)c(Cl)c1 [Example 426, 3-chloro-4-(4-isopropoxy-5-(2-methylbenzo[d]oxazol-6-yl)-7H-pyrrolo[2,3-d]pyrimidin-2-ylamino)-N-methylbenzamide] | < 100 |

More lines, now with the values ahead:

| IC50 [nM] | Compound |
| --- | --- |
| 100 to 400 | COc1cc(C(=O)N(C)C)ccc1Nc1nc(OC)c2c(-c3ccc4c(C)noc4c3)c[nH]c2n1 [Example 408, 3-methoxy-4-(4-methoxy-5-(3-methylbenzo[d]isoxazol-6-yl)-7H-pyrrolo[2,3-d]pyrimidin-2-ylamino)-N,N-dimethylbenzamide] |
| < 100 | COc1cc(C(=O)N(C)C)ccc1Nc1nc(OC(C)C)c2c(-c3ccnc(F)c3)c[nH]c2n1 [Example 403, 4-(5-(2-fluoropyridin-4-yl)-4-isopropoxy-7H-pyrrolo[2,3-d]pyrimidin-2-ylamino)-3-methoxy-N,N-dimethylbenzamide] |
| 400 to 1000 | COc1cc(C(=O)NC2COC2)ccc1Nc1nc(OC)c2c(-c3ccnnc3)c[nH]c2n1 [Example 405, 3-methoxy-4-(4-methoxy-5-(pyridazin-4-yl)-7H-pyrrolo[2,3-d]pyrimidin-2-ylamino)-N-(oxetan-3-yl)benzamide] |
| 400 to 1000 | COc1nc(Nc2ccc(C(=O)N(C)C)cc2C)nc2[nH]cc(-c3ccnc(F)c3)c12 [Example 409, 4-(5-(2-fluoropyridin-4-yl)-4-methoxy-7H-pyrrolo[2,3-d]pyrimidin-2-ylamino)-N,N,3-trimethylbenzamide] |

same assay, conditions: Homo sapiens, CAL-51; CAL51 cell proliferation, Cell Titer Glo; read-out: Act. Level

| Compound | IC50 [nM] |
| --- | --- |
| COc1nc(Nc2ccc(C(=O)N(C)C)cc2C)nc2[nH]cc(-c3cnn(C)c3)c12 [Example 398, 4-(4-methoxy-5-(1-methyl-1H-pyrazol-4-yl)-7H-pyrrolo[2,3-d]pyrimidin-2-ylamino)-N,N,3-trimethylbenzamide] | 400 to 1000 |
| CNC(=O)c1ccc(-c2c[nH]c3nc(Nc4ccc(C(=O)NC5COC5)cc4C)nc(OC4CCC4)c23)cc1 [Example 332, 4-(4-cyclobutoxy-5-(4-(methylcarbamoyl)phenyl)-7H-pyrrolo[2,3-d]pyrimidin-2-ylamino)-3-methyl-N-(oxetan-3-yl)benzamide] | < 100 |
| CNC(=O)c1ccc(-c2c[nH]c3nc(Nc4ccc(C(=O)NC5COC5)cc4OC)nc(OC4CC(C#N)C4)c23)cc1 (stereo not shown) [Example 341, 4-(4-(3-cyanocyclobutoxy)-5-(4-(methylcarbamoyl)phenyl)-7H-pyrrolo[2,3-d]pyrimidin-2-ylamino)-3-methoxy-N-(oxetan-3-yl)benzamide] | < 100 |
| CNC(=O)c1ccc(-c2c[nH]c3nc(Nc4ccc(C(=O)NC5CN(C)C5)cc4OC)nc(OC(C)(C)C)c23)cc1 [Example 355, 4-(4-tert-butoxy-5-(4-(methylcarbamoyl)phenyl)-7H-pyrrolo[2,3-d]pyrimidin-2-ylamino)-3-methoxy-N-(1-methylazetidin-3-yl)benzamide] | < 100 |
| COc1cc(C(=O)N2C[C@H]2CO)ccc1Nc1nc(OC2CCCC2)c2c(-c3ccc4nc(C)oc4c3)c[nH]c2n1 [Example 350, (S)-(4-(4-(cyclopentyloxy)-5-(2-methylbenzo[d]oxazol-6-yl)-7H-pyrrolo[2,3-d]pyrimidin-2-ylamino)-3-methoxyphenyl)(2-(hydroxymethyl)aziridin-1-yl)methanone] | 100 to 400 |
| COc1cc(C(=O)N2CC2C)ccc1Nc1nc(OC2CCCC2)c2c(-c3ccc4nc(C)oc4c3)c[nH]c2n1 [Example 335, (R)-(4-(4-(cyclopentyloxy)-5-(2-methylbenzo[d]oxazol-6-yl)-7H-pyrrolo[2,3-d]pyrimidin-2-ylamino)-3-methoxyphenyl)(2-methylaziridin-1-yl)methanone] | 400 to 1000 |
| COc1ccc(-c2c[nH]c3nc(Nc4ccc(C(=O)N(C)C)cc4C)nc(OC)c23)cc1 [Example 391, 4-(4-methoxy-5-(4-methoxyphenyl)-7H-pyrrolo[2,3-d]pyrimidin-2-ylamino)-N,N,3-trimethylbenzamide] | 100 to 400 |
| CNC(=O)c1ccc(-c2c[nH]c3nc(Nc4cnn(CC(C)(C)O)c4Cl)nc(OC4CCC4)c23)cc1 [Example 372, 4-(2-(5-chloro-1-(2-hydroxy-2-methylpropyl)-1H-pyrazol-4-ylamino)-4-cyclobutoxy-7H-pyrrolo[2,3-d]pyrimidin-5-yl)-N-methylbenzamide] | < 100 |

Next, values leading:

| IC50 [nM] | Compound |
| --- | --- |
| 1000 to 10000 | CNC(=O)c1ccc(Nc2nc(OC3CC3)c3c(-c4ccn(C)n4)c[nH]c3n2)c(OC)c1 [Example 218, 4-(4-cyclopropoxy-5-(1-methyl-1H-pyrazol-3-yl)-7H-pyrrolo[2,3-d]pyrimidin-2-ylamino)-3-methoxy-N-methylbenzamide] |
| 400 to 1000 | CNC(=O)c1ccc(Nc2nc(OC3CCCC3)c3c(-c4cccc(N(C)C)c4)c[nH]c3n2)c(OC)c1 [Example 322, 4-(4-(cyclopentyloxy)-5-(3-(dimethylamino)phenyl)-7H-pyrrolo[2,3-d]pyrimidin-2-ylamino)-3-methoxy-N-methylbenzamide] |
| < 100 | CNC(=O)c1ccc(-c2c[nH]c3nc(Nc4ccc(C(=O)NC5COC5)cc4OC)nc(OC4CCC(C)(O)CC4)c23)cc1 (stereo not shown) [Example 337, 4-(4-((1s,4s)-4-hydroxy-4-methylcyclohexyloxy)-5-(4-(methylcarbamoyl)phenyl)-7H-pyrrolo[2,3-d]pyrimidin-2-ylamino)-3-methoxy-N-(oxetan-3-yl)benzamide] |
| 100 to 400 | COc1nc(Nc2ccc(C(=O)NC3COC3)cc2C)nc2[nH]cc(-c3ccncc3)c12 [Example 396, 4-(4-methoxy-5-(pyridin-4-yl)-7H-pyrrolo[2,3-d]pyrimidin-2-ylamino)-3-methyl-N-(oxetan-3 yl)benzamide] |
| < 100 | CNC(=O)c1ccc(Nc2nc(O[C@H]3CCOC3)c3c(-c4cnn(C)c4)c[nH]c3n2)c(OC)c1 [Example 328, (S)-3-methoxy-N-methyl-4-(5-(1-methyl-1H-pyrazol-4-yl)-4-(tetrahydrofuran-3-yloxy)-7H-pyrrolo[2,3-d]pyrimidin-2-ylamino)benzamide] |
| < 100 | COc1cc(C(=O)NC2CN(C)C2)ccc1Nc1nc(O[C@H]2CCOC2)c2c(-c3ccc4nc(C)oc4c3)c[nH]c2n1 [Example 374, (S)-3-methoxy-N-(1-methylazetidin-3-yl)-4-(5-(2-methylbenzo[d]oxazol-6-yl)-4-(tetrahydrofuran-3-yloxy)-7H-pyrrolo[2,3-d]pyrimidin-2-ylamino)benzamide] |
| 100 to 400 | CNC(=O)c1ccc(-c2c[nH]c3nc(Nc4ccc(C(=O)NC5CN(C)C5)cc4OC)nc(OC4CCC(C)(O)CC4)c23)cc1 (stereo not shown) [Example 349, 4-(4-((1s,4s)-4-hydroxy-4-methylcyclohexyloxy)-5-(4-(methylcarbamoyl)phenyl)-7H-pyrrolo[2,3-d]pyrimidin-2-ylamino)-3-methoxy-N-(1-methylazetidin-3-yl)benzamide] |
| < 100 | COc1cc(C(=O)NC2CN(C)C2)ccc1Nc1nc(OC2CC2)c2c(-c3ccc4nc(C)oc4c3)c[nH]c2n1 [Example 363, 4-(4-cyclopropoxy-5-(2-methylbenzo[d]oxazol-6-yl)-7H-pyrrolo[2,3-d]pyrimidin-2-ylamino)-3-methoxy-N-(1-methylazetidin-3-yl)benzamide] |
| 1000 to 10000 | CNC(=O)c1ccc(Nc2nc(OC3CCCC3)c3c(-c4c(C)noc4C)c[nH]c3n2)c(OC)c1 [Example 321, 4-(4-(cyclopentyloxy)-5-(3,5-dimethylisoxazol-4-yl)-7H-pyrrolo[2,3-d]pyrimidin-2-ylamino)-3-methoxy-N-methylbenzamide] |
| 100 to 400 | CNC(=O)c1ccc(-c2c[nH]c3nc(Nc4ccc(C(=O)NC5CN(C)C5)cc4OC)nc(OC4CC4)c23)cc1 [Example 364, 4-(4-cyclopropoxy-5-(4-(methylcarbamoyl)phenyl)-7H-pyrrolo[2,3-d]pyrimidin-2-ylamino)-3-methoxy-N-(1-methylazetidin-3-yl)benzamide] |
| 100 to 400 | COc1cc(C(=O)NCCO)ccc1Nc1nc(OC2CCOCC2)c2c(-c3cnn(C)c3)c[nH]c2n1 [Example 327, N-(2-hydroxyethyl)-3-methoxy-4-(5-(1-methyl-1H-pyrazol-4-yl)-4-(tetrahydro-2H-pyran-4-yloxy)-7H-pyrrolo[2,3-d]pyrimidin-2-ylamino)benzamide] |
